We go through one compound from US10662225B2, “Backbone cyclized inhibitory peptides of myeloid differentiation factor 88 (MyD88)” (Yissum Research Development Company of the Hebrew …, priority 2016, dated 2020).

For this assay, the target named is T1, MyD88 dimerization (Homo sapiens, UniProt Q99836).
T1 construct: constructs encoding HA-tagged full length MyD88 and Flag-tagged full length MyD88; expressed in transfected cells; host or cells: HEK293
Nature of the assay: Co-immunoprecipitation of Flag-MyD88 with HA-MyD88 in HEK293 cells. Format: cell-based. The settings on record: HEK293, IL-1 stimulation; 4×4MyDI at 20, 2, 0.2 μM; Myr-4×4MyDI at 0.2 or 2000 nM. The procedure: FIG. 10. 4×4MyDI blocks MyD88 dimerization. HEK293 cells were transfected with two plasmids, one encoding HA-MyD88 and the other encoding FLAG-MyD88 and after 48 hours the cells were either untreated (cont) or treated with 20 μM of the linear MyDI peptide, the scrambled version of the linear MyDI peptide (SEQ ID NO: 5,), or the 4×4MyDI at 20, 2, or 0.2 μM. After 3 h of treatment, cells were stimulated with recombinant human IL-1 (20 ng/ml) for 30 min and then lysed. Whole cell lysates (WCL) were immunoprecipitated with anti-HA beads (Thermo-Scientific) for 30 min and proteins were eluted with glycine Ph 2.0, neutralized, and loaded on an acrylamide gel for analysis. Proteins were transferred to nitrocellulose and the amount of Flag-MyD88 that co-precipitated with HA-MyD88 was detected by immunoblotting (IB) with anti-Flag antibody.
FIGS. 14A and 14B. […] Proteins were transferred to nitrocellulose and the amount of FLAG-MyD88 that co-precipitated with HA-MyD88 was detected by immunoblotting (IB) with anti-FLAG antibody. […] Percent inhibition of co-immunoprecipitation was calculated by comparing densitometry of bands in the treated lanes to control. […]
TLR and IL-1 receptor signaling proceeds through a multimeric protein signaling complex (the “Myddosome”) that is initiated by MyD88 homodimerization. […] Immunoprecipitated protein was eluted and analyzed by immunoblot using an antibody to Flag. […]

Numbered stars: 1 amine (or outer) side, 2 acyl side, 3 side chain; on linkers, the order of the positions; unused ones are H or OH. Bridge positions count the residues as written; N and C are the ends. Square brackets hold non-standard residues; d marks the D form. Peptide text beside a SMILES is read from it. CO = O=C([*:1])[*:2]; Nlys = NCCCCNCC(=O)O

T1 sequence (Q99836 whole entry): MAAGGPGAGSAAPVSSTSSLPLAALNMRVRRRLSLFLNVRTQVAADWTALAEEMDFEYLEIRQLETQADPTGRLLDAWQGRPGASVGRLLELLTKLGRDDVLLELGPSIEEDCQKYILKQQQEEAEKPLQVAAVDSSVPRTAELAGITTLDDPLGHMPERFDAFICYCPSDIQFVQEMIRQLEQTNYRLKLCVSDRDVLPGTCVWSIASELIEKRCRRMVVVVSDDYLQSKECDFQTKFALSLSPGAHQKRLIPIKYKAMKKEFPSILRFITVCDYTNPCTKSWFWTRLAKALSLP

In the case of `CC(C)C[C@@H]1NC(=O)[C@H](C(C)C)NC(=O)[C@H](CC(=O)O)NC(=O)[C@H](CCCNC(=N)N)NC(=O)CN(C(=O)[C@@H](N)Cc2c[nH]c3ccccc23)CCCCNC(=O)NCCCCN(CC(=O)NCC(=O)N[C@H](C(N)=O)[C@@H](C)O)C1=O` [4×4MyDI] (H-W[Nlys]RDVL[Nlys]GT-NH2; linker 2-7 via CO; N-terminus assumed), the “MyD88 dimerization (Flag-MyD88 co-precipitated with HA-MyD88)” value is “dramatically reduces the dimerization”.
